# Measured values as given in patent US10857105B2, “Compounds and compositions for intracellular delivery of therapeutic agents” (ModernaTX, Inc., priority 2017, dated 2020).
# What was measured:
# [1] = test system: modified luciferase; experiment: Luciferase expression in liver, lung, spleen and femur 6 hours after intravenous administration to mice; format: in vivo; settings: 6 hours after intravenous 0.5 mpk, mice
# Summary of the method: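 Nanoparticle formulations of the modified luciferase were given intravenously to mice (n=3) at 0.5 mpk. Bioluminescence was measured after 6 hours as total light flux. Standard MC3 formulation and PBS run as controls.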
# [2] = Particle size and polydispersity index of nanoparticle compositions (Zetasizer Nano ZS); format: physicochemical
# Summary of the method: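 Size and PDI measured by Zetasizer Nano ZS in 1×PBS (zeta potential in 15 mM PBS). Lipid nanoparticles contained test ionizable lipid:DSPC:cholesterol:PEG-DMG at 50:10:38.5:1.5 mol % with N1-methyl-pseudouridine mRNA encoding luciferase or hEPO.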
# [3] = test system: IL-6, IP-10; experiment: Cytokine induction (IL-6, IP-10) in mice 6 hours after intravenous administration; format: in vivo; parameters: unit not given here; settings: intravenous 0.5 mpk
# From the text: The introduction of foreign material into a mammalian body induces an innate immune response that promotes cytokine production. Such immune responses to, for example, nanoparticle compositions including therapeutic and/or prophylactics, are undesirable. The induction of certain cytokines is thus measured to evaluate the […] of nanoparticle compositions. The concentrations of various cytokines in mice upon intravenous administration of nanoparticle compositions presented in Table 1A at a dosage of 0.5 mpk was measured at 6 hours. The standard MC3 formulation and a PBS control were also tested. As is evident in Table 7, IL-6 induction was highest for compositions including Compounds 1, 3, 9, 19, and 26, while IP-10 induction was highest for compositions including Compounds 3, 4, 7, 20, and 26. IL-6 induction was lowest for compositions including Compounds 4, 11, 12, and 28. IP-10 induction was lowest for compositions including Compounds 10, 11, 12, 13, 15, 17, and 18.
# [4] = Encapsulation efficiency of RNA in nanoparticle compositions (RIBOGREEN assay); format: physicochemical
# Summary of the method: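 Lipid nanoparticles (ionisable lipid:DSPC:cholesterol:PEG-DMG 50:10:38.5:1.5 mol %) carrying N1-methylpseudouridine luciferase or hEPO mRNA diluted to about 5 μg/mL in TE, pH 7.5, with or without 2% Triton X-100, 15 min at 37° C. RiboGreen fluorescence (ex ~480, em ~520 nm) blank-subtracted; free RNA = intact/disrupted signal.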
# [5] = test system: luciferase (Luc) mRNA; experiment: Luciferase expression (whole body bioluminescence) after intravenous administration to mice; format: in vivo
# Procedure: In order to monitor how effectively various nanoparticle compositions deliver therapeutic and/or prophylactics to targeted cells, different nanparticle compositions including a particular therapeutic and/or prophylactic (for example, a modified or naturally occurring RNA such as an mRNA) are prepared and administered to rodent populations. Mice are intravenously, intramuscularly, intraarterially, or intratumorally administered a single dose including a nanoparticle composition with a formulation such as those provided in Example 3. In some instances, mice may be made to inhale doses. Dose sizes may range from 0.001 mg/kg to 10 mg/kg, where 10 mg/kg describes a dose including 10 mg of a therapeutic and/or, prophylactic in a nanoparticle composition for each 1 kg of body mass of the mouse. A control composition including PBS may also be employed.
# Upon administration of nanoparticle compositions to mice, dose delivery profiles, dose responses, and toxicity of particular formulations and doses thereof can be measured by enzyme-linked immunosorbent assays (ELISA), bioluminescent imaging, or other methods. For nanoparticle compositions including mRNA, time courses of protein expression can also be evaluated. Samples collected from the rodents for evaluation may include blood, sera, and tissue (for example, muscle tissue from the site of an intramuscular injection and internal tissue); sample collection may involve sacrifice of the animals.
# The efficacy of the nanoparticle compositions presented in Table 1A was evaluated with a bioluminescence study. Formulations were administered intravenously to mice (n=6) at a dosage of 0.5 mg/kg (mpk) and bioluminescence measured at 3, 6, and 24 hour time points. The standard MC3 formulation and, in some instances, a control (e.g., a PBS control) were evaluated for comparison. […] In general, flux decreased as time progressed to less than 10% of the initial flux.
# The total flux (measured by area under the curve, AUC) induced by administration of a formulation including a given lipid relative to that induced by administration of a formulation including MC3 was also measured for several lipids.
# [6] = Table 1A, lipid:DSPC:cholesterol:PEG-DMG 50:10:38.5:1.5 mol %
# [7] = Table 1B, formulated with hEPO mRNA
# [8] = intravenous administration (Table 3D)
Structure (SMILES),"Total Flux, Femur [1]","Total Flux, Liver [1]","Total Flux, Lung [1]","Total Flux, Spleen [1]","Size [2, 6]","Cytokine induction, IL-6 [3]","Cytokine induction, IP-10 [3]","EE [4, 6]","Size [2, 7]","Size ([2]; Table 1E, compositions for subcutaneous administration)","Novel lipid/MC3 expression ratio, i.v. ([5]; intravenous, luciferase, 6 hr. time point, relative to MC3 formulation)","EE [4, 7]",AUC ([5]; i.v. administration (Table 3C)),"AUC [5, 8]","Size ([2]; Table 1D, compositions for subcutaneous administration, # formulated with hEPO mRNA)"
"CCCCCCCCCCCCCCCCCCN(CCO)CCCCCCCC(=O)OC(CCCCCCCC)CCCCCCCC [Compound 1, Heptadecan-9-yl 8-((2-hydroxyethyl)(octadecyl)amino)octanoate]",7.52E+05,4.02E+08,1.72E+06,4.27E+06,72.7 nm,267.24,687.14,–,–,–,–,–,–,–,–
"CCCCCCCCC(CCCCCCCC)OC(=O)CCCCCCCN(CCO)CCCCCC [Compound 5, Heptadecan-9-yl 8-(hexyl(2-hydroxyethyl)amino)octanoate]",1.22E+06,5.84E+07,1.89E+06,1.55E+08,–,94.07,487.16,77.07%,–,–,–,–,–,–,–
"CCCCCCCCC(CCCCCCCC)OC(=O)CCCCCCCN(CCO)CCCCCCCC(=O)OCC1CC1CCCCCC (stereo not drawn) [Compound 28, Heptadecan-9-yl 8-((8-((2-hexylcyclopropyl)methoxy)-8-oxooctyl)(2-hydroxyethyl)amino)octanoate]",–,1.22E+10,2.17E+08,1.80E+08,99.4 nm,17.47,283.13,–,–,–,–,–,–,–,–
"CCCCCCCCCOC(=O)CCCCCCCN(CCCCCCCC(=O)OC(CCCCCCCC)CCCCCCCC)CCCNC(C)=O [Compound 108, Heptadecan-9-yl 8-((3-acetamidopropyl)(8-(nonyloxy)-8-oxooctyl)amino)octanoate]",–,4.63E+08,9.81E+06,7.82E+08,119 nm,–,–,96%,89.6 nm,96.1 nm,0.40,95.38%,–,–,–
"CCCCCCCCC(CCCCCC)C(=O)OCCCCCCCCCN(CCO)CCCCCCCCCOC(=O)C(CCCCCC)CCCCCCCC (stereo not drawn) [Compound 133, ((2-Hydroxyethyl)azanediyl)bis(nonane-9,1-diyl) bis(2-hexyldecanoate)]",–,2.94E+09,3.18E+06,1.77E+07,66.0 nm,–,–,91.48%,–,–,–,–,3.62E+11 h*p/s,–,–
"CCCCCCCCCOC(=O)CCCCCCCN(CCO)CCCCCCCCCOC(=O)C(CCCCCC)CCCCCCCC (stereo not drawn) [Compound 134, 9-((2-Hydroxyethyl)(8-(nonyloxy)-8-oxooctyl)amino)nonyl 2-hexyldecanoate]",–,1.73E+09,2.82E+06,1.85E+07,85.6 nm,–,–,94.62%,–,–,–,–,3.43E+11 h*p/s,–,–
"CCCCCCCCC(C)OC(=O)CCCCCCCN(CCO)CCCCCCCOC(=O)C(CCCCCCCC)CCCCCCCC (stereo not drawn) [Compound 135, 7-((8-(Decan-2-yloxy)-8-oxooctyl)(2-hydroxyethyl)amino)heptyl 2-octyldecanoate]",–,1.65E+10,2.71E+07,1.39E+08,89.5 nm,–,–,90.20%,–,–,–,–,1.25E+12 h*p/s,–,–
"CCCCCC/C=C\COC(=O)CCCCCCCN(CCO)CCCCCCCC(=O)OC/C=C\CCCCCC [Compound 139, Di((Z)-non-2-en-1-yl) 8,8′-((2-hydroxyethyl)azanediyl)dioctanoate]",5.12E+04,8.27E+05,5.26E+04,2.10E+06,–,23.57,153.36,78.2%,–,–,–,–,–,–,–
"CCCCCCCCC(CCCCCCCC)OC(=O)CCCCCCCN(CCO)CCCCCC(=O)N(C)CCCCCCCC [Compound 146, Heptadecan-9-yl 8-((2-hydroxyethyl)(6-(methyl(octyl)amino)-6-oxohexyl)amino)octanoate]",–,7.24E+06,3.88E+06,5.11E+07,97.0 nm,–,–,91.94%,–,–,–,–,1.04E+09 h*p/s,–,–
"CCCCCCCCCOC(=O)CCCCCCCN(CCO)CCCCCCCCCC(=O)OC(CCCCCC)CCCCCC [Compound 147, Tridecan-7-yl 10-((2-hydroxyethyl)(8-(nonyloxy)-8-oxooctyl)amino)decanoate]",–,5.24E+09,6.73E+06,8.57E+07,99.5 nm,–,–,88.31%,111.9 nm,–,–,91.0%,5.63E+11 h*p/s,–,–
"CCCCCCCCC(CCCCCCCC)OC(=O)CCCCCCCN(C)CCCCCCCCCCCC(=O)OCCCCC [Compound 150, Pentyl 12-((8-(heptadecan-9-yloxy)-8-oxooctyl)(methyl)amino)dodecanoate]",–,1.54E+09,2.20E+06,3.43E+07,63.1 nm,–,–,96.72%,–,–,–,–,–,2.704E+011 p/s*h,–
"CCCCCCCCCC(=O)OCCCCCCCN(CCO)CCCCCCCOC(=O)C(CCCCCCCC)CCCCCCCC [Compound 151, 7-((7-(Decanoyloxy)heptyl)(2-hydroxyethyl)amino)heptyl 2-octyldecanoate]",–,4.72E+09,9.20E+06,9.27E+07,105.7 nm,–,–,87.86%,–,–,–,–,–,7.010E+011 p/s*h,77.6 nm
"CCCCCCCCCOC(=O)CCCCCCCN(CCCCCCCC(=O)OC(CCCCCCCC)CCCCCCCC)CCOCCO [Compound 154, Heptadecan-9-yl 8-((2-(2-hydroxyethoxy)ethyl)(8-(nonyloxy)-8-oxooctyl)amino)octanoate]",–,3.62E+08,2.89E+06,1.30E+07,92.9 nm,–,–,94.28%,–,–,–,–,–,5.560E+010 p/s*h,–
